# Experimental data: patent US11365227B2, “Peptide and pharmaceutical compositions of same for use as an antimicrobial and in cancer treatment” (UNIVERSITAT DE VALÈNCIA, priority 2017, dated 2022)
# Where a SMILES comes first, the peptide text is derived from it.
# How the values were obtained:
# [1] = system: MDA-MB-231 triple-negative breast cancer cells; assay: Cell viability MTS assay, cytotoxic effect; assay type: cell-based, human; conditions: around 100 μM (400 μg/mL)
# Description: Cell viability was determined by the MTS method. The MDA-MB-231 cells cultured in plates with 96 wells at 37° C. in an atmosphere humidified with 10% CO2 to a density of 5×10^3 cells/well were incubated with different concentrations of the peptide PaSK for 24 h. Then 20 μL were added of the solution MTS/PMS (3-(4,5-dimethylthiazol-2-yl)-5-(3-carboxymethoxyfenyl)-2-(4-sulphophenyl)-2H-tetrazole/phenazine methosulphate) to each well and after incubating for 2 h in the dark the absorbance at 490 nm was read in a plate reader. The percentage reduction in number of cells was calculated according to the formula (1−E/C)×100, where E is the absorbance of the cells treated with the peptide and C is the absorbance of the samples of the control cells.
# The cytotoxic effect of the peptide PaSK has been studied in two cell lines of triple-negative breast cancer cells, one human (MDA-MB-231) and one mouse (4T1), and a line of normal mouse mammary epithelial cells (HC-11). To this end, a cell viability MTS assay was performed, based on the use of a compound derived from tetrazolium that is reduced in live cells to form a soluble coloured product. […]
# S. aureus [2] = assay: Scanning electron microscopy of S. aureus cells treated with peptides; assay type: cell-based, Staphylococcus aureus subsp. aureus CECT 4013; conditions: 25 μg/mL, 1 h
# Description: The cells were prepared in the same way as for the flow cytometry technique and the same aliquots and treatments were performed. The samples were incubated at 37° C. for 1 h. The bacteria were fixed with Karnosky (2.5% paraformaldehyde and 0.5 glutaraldehyde) for 2 h at 4° C. After washing (centrifuging and eliminating the supernatant) they were fixed with 2% osmium tetraoxide for another 2 h, washed again and filtered with a 0.2 μm filter. The cells were then dehydrated in graded ethanol series (30°, 50°, 70°, 90°, 100°) for 10 min in each gradation. To carry out the critical point drying, the ethanol was replaced with liquid CO2, the temperature was increased to accelerate evaporation and the pressure was lowered slowly to conserve the exact shape of the bacteria. Finally, shading with gold palladium was performed for 2 min observing the results in the equipment FEG-SEM HITACHI S4800 at 10 Kv.
# Scanning electron microscopy provides high-resolution images used to view the damage caused by the peptides to the bacterial membrane. The cells of S. aureus CECT 4013 were treated with the peptides hBD-3, TcDef3-pep and PaSK at a concentration of 25 μg/mL, for 1 h, and analysed using scanning electron microscopy (FIG. 4). In cells without treatment the circular and uniform form typical of S. aureus was observed, with the intact membrane, while in treated cells various types of morphological alterations can be seen. […] With this treatment small circular structures are observed, smaller than the cells of S. aureus.
# S. aureus [3] = assay: Transmission electron microscopy of S. aureus cells treated with peptides; assay type: cell-based, Staphylococcus aureus subsp. aureus CECT 4013; conditions: 25 μg/mL, 1 h
# Description: The samples were prepared in the same way as for scanning electron microscopy, except for the series of graded dehydration with ethanol, in which only the 90° grade was reached. Then the samples were included in resin in 4 steps: ethanol 96°—resin LR-White 2:1 (20 h), ethanol 100°—resin 2:1 (20 h), ethanol 100°—resin 1:2 (20 h) and 100% resin (24 h at 60° C.). After the samples were included in the resin the block was prepared for ultrathin cuts of 60 nm in the equipment Leica UC6 Ultracut Microtome.
# Transmission electron microscopy provides high-resolution images which were used to view the ultrastructural damage caused by the peptides inside the bacteria. The cells of S. aureus CECT 4013 were treated with the peptides hBD-3, TcDef3-pep and PaSK at a concentration of 25 μg/mL, for 1 h, and analysed using transmission electron microscopy (FIG. 6). In cells without treatment, an intact cytoplasm membrane (3) and peptidoglycane wall (2) were observed, typical of a Gram+ bacteria as S. aureus, as well as a division septum (1) without malformations, while in treated cells different types of alterations were observed. […] Small size circular structures (9) are observed. These structures show a different electrodensity from cells and lack a cytoplasm membrane and peptidoglycane wall. The biofilm formed by the cells treated with peptides was also observed in the images obtained by transmission electron microscopy (FIG. 7) and it was not observed in the cells treated with human defensin hBD-3 (FIG. 6).
structure (smiles),measurement,setting,value
CC[C@H](C)[C@H](NC(=O)[C@H](CCCNC(=N)N)NC(=O)[C@H](CCCNC(=N)N)NC(=O)[C@H](CCCCN)NC(=O)[C@H](CC(N)=O)NC(=O)[C@H](CS)NC(=O)[C@H](Cc1ccc(O)cc1)NC(=O)CNC(=O)CNC(=O)[C@H](CCCNC(=N)N)NC(=O)[C@H](CCCCN)NC(=O)[C@H](CCCNC(=N)N)NC(=O)[C@H](CCCCN)NC(=O)[C@H](CC(C)C)NC(=O)[C@H](CC(C)C)NC(=O)[C@H](CS)NC(=O)[C@H](Cc1c[nH]cn1)NC(=O)[C@H](C)NC(=O)[C@H](C)NC(=O)[C@H](CS)NC(=O)[C@H](C)NC(=O)[C@H](C)NC(=O)[C@H](Cc1c[nH]cn1)NC(=O)[C@H](CC(N)=O)NC(=O)[C@@H](NC(=O)[C@@H](N)CCCCN)C(C)C)C(=O)N[C@@H](CS)C(=O)N[C@H](C(=O)N[C@@H](CS)C(=O)N[C@@H](CCCNC(=N)N)C(=O)N[C@@H](CC(N)=O)C(=O)O)C(C)C [PaSK] (H-KVNHAACAAHCLLKRKRGGYCNKRRICVCRN-OH; N-terminus and C-terminus assumed),cytotoxicity compared with the other cell lines,[1],significantly more cytotoxic
same,"biofilm formation, scanning electron microscopy",S. aureus [2],biofilm produced
same,"morphological alterations, scanning electron microscopy",S. aureus [2],complete cell disintegration
same,"ultrastructural damage, transmission electron microscopy",S. aureus [3],"detachments, malformations and thinning of the membrane"
